Assay type in all cases: cell-based
The target of assay [1] is T1, Caspase-1 (Homo sapiens) (UniProt P29466).
T1 sequence (whole entry): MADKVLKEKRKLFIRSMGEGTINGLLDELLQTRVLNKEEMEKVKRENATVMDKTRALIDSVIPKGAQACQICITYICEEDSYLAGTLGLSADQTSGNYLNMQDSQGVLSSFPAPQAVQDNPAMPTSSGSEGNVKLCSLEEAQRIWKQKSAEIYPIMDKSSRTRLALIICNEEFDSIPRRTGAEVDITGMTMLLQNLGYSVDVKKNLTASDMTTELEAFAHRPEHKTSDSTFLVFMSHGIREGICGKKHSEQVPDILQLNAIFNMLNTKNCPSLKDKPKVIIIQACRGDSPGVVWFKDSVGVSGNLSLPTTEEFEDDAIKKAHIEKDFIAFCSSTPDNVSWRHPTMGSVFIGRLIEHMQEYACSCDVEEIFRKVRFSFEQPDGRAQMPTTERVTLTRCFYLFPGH
Put plainly: Compound was tested for inhibition of IL-1 beta converting enzyme (ICE) in human blood monocytes expressed as Ki.

Assay [2] addresses T1, Caspase-1 (Homo sapiens). In words: Inhibition of IL-1 beta converting enzyme (ICE) in human blood monocytes expressed as Kon.
The next assay has as its target T2, Caspase-1 (Homo sapiens, UniProt P29466).
T2 sequence (P29466 whole entry): T1 sequence (whole entry)
Put plainly: Inhibition of IL-1 beta converting enzyme (ICE) in human blood monocytes expressed as Ki.

For the compound `C=CCOC(=O)NC(CC(=O)O)C(=O)COc1ccc(-c2ccccc2)cc1C(N)=O` (centres undefined), on Caspase-1 (Homo sapiens) [1], the k on worked out at 3400 M⁻¹ s⁻¹.
The compound `C=CCOC(=O)NC(CC(=O)O)C(=O)COc1cc2ccccc2cc1C(=O)Nc1ccccc1` (centres undefined) yielded a k on on Caspase-1 (Homo sapiens) [2] of 4100 M⁻¹ s⁻¹.
On the same count and under the same terms, then `C=CCOC(=O)NC(CC(=O)O)C(=O)COc1cc2ccccc2cc1C#N` (centres undefined), with 4500 M⁻¹ s⁻¹.
For orientation: Ki means a measure of affinity in units of concentration, obtained from inhibition or displacement. Read a low Ki as a stronger hold on the target. In the case of `C=CCOC(=O)NC(CC(=O)O)C(=O)COc1ccc2ccccc2c1` (centres undefined), the affinity at Caspase-1, expressed as Ki, was 4 µM.
On the same count and under the same terms, with `C=CCOC(=O)NC(CC(=O)O)C(=O)COc1ccccc1` (centres undefined) the figure was 2.7 µM; with `C=CCOC(=O)NC(CC(=O)O)C(=O)COc1ccc2ccccc2c1C(N)=O` (centres undefined), greater than 18 µM; with `C=CCOC(=O)NC(CC(=O)O)C(=O)COc1cc(-c2ccccc2)ccc1C(N)=O` (centres undefined), 2 µM.
The same measure, in the same setting: then `C=CCOC(=O)NC(CC(=O)O)C(=O)COc1c(C(N)=O)ccc2ccccc12` (centres undefined), with greater than 22 µM.
On Caspase-1, `C=CCOC(=O)N[C@@H](CC(=O)O)C(=O)COc1cc2ccccc2cc1-c1ncc[nH]1` displayed a Ki of 0.09 µM. The k on on Caspase-1 (Homo sapiens) [2] came out at 12000 M⁻¹ s⁻¹.
For `CC(C)[C@H](NC(=O)OCc1ccccc1)C(=O)N[C@@H](C)C(=O)N[C@@H](CC(=O)O)C(=O)COc1cc2ccccc2cc1C(N)=O` the same measures were 1.7 µM and 430000 M⁻¹ s⁻¹.
`C=CCOC(=O)NC(CC(=O)O)C(=O)COc1cc2ccccc2cc1C(=O)N(C)C` (centres undefined) gave a Ki at Caspase-1 greater than 28 µM.
Take `C=CCOC(=O)NC(CC(=O)O)C(=O)COc1cc2ccccc2cc1C(N)=O` (centres undefined): the Ki at Caspase-1 is 0.32 µM. Further, the k on at Caspase-1 (Homo sapiens) [2] was 5600 M⁻¹ s⁻¹.
In the same order, the values of `CC(C)[C@H](NC(=O)OCc1ccccc1)C(=O)N[C@@H](C)C(=O)N[C@@H](CC(=O)O)C(=O)COc1ccccc1` are 4.9 µM and 1.1 M⁻¹ s⁻¹.
For the compound `C=CCOC(=O)NC(CC(=O)O)C(=O)COc1ccccc1C(N)=O` (centres undefined), the Ki on Caspase-1 worked out at 3.8 µM.
On the same count and under the same terms, then `C=CCOC(=O)N[C@@H](CC(=O)O)C(=O)CCc1cc2ccccc2cc1-c1ncc[nH]1`, with greater than 100 µM.

These data come from ChEMBL document CHEMBL1128759, “Inhibition of interleukin-1 converting enzyme by N-acyl-aspartyl aryloxymethyl ketones” (Bioorg Med Chem Lett, 1995).
